Data taken from ChEMBL document CHEMBL4507276 (2021).

Experiments:
[1] = target: Casein kinase I isoform gamma-2 (Homo sapiens) (UniProt P78368); test: CSNK1G2 Invitrogen selectivity data (BI); conditions: Compound concentration 3.0 uM
[2] = target: T1, Dual specificity mitogen-activated protein kinase kinase 3 (Homo sapiens) (UniProt P46734); test: MAP2K3 Invitrogen selectivity data (BI); conditions: Compound concentration 3.0 uM
T1 sequence (whole entry): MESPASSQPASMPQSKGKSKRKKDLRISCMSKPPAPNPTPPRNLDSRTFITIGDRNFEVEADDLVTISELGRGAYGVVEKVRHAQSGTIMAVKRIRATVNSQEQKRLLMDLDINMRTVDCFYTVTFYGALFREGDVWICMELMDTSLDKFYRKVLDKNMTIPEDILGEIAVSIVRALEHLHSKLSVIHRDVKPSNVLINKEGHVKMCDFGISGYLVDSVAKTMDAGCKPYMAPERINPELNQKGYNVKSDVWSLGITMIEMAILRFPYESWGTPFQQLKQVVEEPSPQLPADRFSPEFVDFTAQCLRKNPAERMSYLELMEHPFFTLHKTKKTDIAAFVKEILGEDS

[3] = target: T2, Dual specificity mitogen-activated protein kinase kinase 6 (Homo sapiens) (UniProt P52564); test: MAP2K6 Invitrogen selectivity data (BI); conditions: Compound concentration 3.0 uM
T2 sequence (whole entry): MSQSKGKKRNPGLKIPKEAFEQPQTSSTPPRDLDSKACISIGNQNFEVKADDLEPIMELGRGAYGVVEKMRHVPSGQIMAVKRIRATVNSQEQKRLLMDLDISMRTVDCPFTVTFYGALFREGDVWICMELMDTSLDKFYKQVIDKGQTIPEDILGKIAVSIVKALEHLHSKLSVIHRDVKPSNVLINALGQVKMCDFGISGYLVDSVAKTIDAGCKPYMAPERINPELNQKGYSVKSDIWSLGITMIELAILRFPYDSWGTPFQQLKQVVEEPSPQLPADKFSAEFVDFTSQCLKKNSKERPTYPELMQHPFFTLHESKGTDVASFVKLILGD

[4] = target: Delta-type opioid receptor (Homo sapiens) (UniProt P41143); test: DELTA/HU Eurofins-Panlabs selectivity data (BI); conditions: Compound concentration 10.0 uM
Delta-type opioid receptor (Homo sapiens), sequence (P41143 whole entry, canonical isoform): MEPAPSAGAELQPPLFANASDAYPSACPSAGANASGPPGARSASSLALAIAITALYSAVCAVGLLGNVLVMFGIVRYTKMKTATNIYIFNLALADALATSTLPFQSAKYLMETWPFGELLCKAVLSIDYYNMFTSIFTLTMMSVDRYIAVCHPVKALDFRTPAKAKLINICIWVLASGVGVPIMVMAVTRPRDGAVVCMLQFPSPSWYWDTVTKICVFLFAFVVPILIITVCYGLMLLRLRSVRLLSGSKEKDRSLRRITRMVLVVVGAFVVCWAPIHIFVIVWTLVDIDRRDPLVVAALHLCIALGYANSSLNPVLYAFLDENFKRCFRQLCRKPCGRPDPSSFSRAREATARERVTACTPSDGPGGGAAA

[5] = target: Casein kinase I isoform epsilon (Homo sapiens) (UniProt P49674); test: CSNK1E Invitrogen selectivity data (BI); conditions: Compound concentration 3.0 uM
Casein kinase I isoform epsilon (Homo sapiens), sequence (P49674 whole entry, looked up, canonical isoform): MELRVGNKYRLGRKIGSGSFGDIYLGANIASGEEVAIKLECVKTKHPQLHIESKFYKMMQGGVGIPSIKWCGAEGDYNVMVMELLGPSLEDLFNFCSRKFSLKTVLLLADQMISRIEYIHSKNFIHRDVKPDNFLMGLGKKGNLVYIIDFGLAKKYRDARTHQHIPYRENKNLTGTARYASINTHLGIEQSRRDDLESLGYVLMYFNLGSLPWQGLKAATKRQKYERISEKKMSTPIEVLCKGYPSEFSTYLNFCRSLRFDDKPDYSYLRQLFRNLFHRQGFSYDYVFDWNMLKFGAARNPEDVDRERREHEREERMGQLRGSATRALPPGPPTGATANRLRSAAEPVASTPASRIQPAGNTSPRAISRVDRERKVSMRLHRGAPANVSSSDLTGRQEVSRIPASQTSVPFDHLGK

[6] = target: Ribosomal protein S6 kinase alpha-1 (Homo sapiens) (UniProt Q15418); test: RPS6KA1 Invitrogen selectivity data (BI); conditions: Compound concentration 3.0 uM
Ribosomal protein S6 kinase alpha-1 (Homo sapiens), sequence (Q15418 whole entry): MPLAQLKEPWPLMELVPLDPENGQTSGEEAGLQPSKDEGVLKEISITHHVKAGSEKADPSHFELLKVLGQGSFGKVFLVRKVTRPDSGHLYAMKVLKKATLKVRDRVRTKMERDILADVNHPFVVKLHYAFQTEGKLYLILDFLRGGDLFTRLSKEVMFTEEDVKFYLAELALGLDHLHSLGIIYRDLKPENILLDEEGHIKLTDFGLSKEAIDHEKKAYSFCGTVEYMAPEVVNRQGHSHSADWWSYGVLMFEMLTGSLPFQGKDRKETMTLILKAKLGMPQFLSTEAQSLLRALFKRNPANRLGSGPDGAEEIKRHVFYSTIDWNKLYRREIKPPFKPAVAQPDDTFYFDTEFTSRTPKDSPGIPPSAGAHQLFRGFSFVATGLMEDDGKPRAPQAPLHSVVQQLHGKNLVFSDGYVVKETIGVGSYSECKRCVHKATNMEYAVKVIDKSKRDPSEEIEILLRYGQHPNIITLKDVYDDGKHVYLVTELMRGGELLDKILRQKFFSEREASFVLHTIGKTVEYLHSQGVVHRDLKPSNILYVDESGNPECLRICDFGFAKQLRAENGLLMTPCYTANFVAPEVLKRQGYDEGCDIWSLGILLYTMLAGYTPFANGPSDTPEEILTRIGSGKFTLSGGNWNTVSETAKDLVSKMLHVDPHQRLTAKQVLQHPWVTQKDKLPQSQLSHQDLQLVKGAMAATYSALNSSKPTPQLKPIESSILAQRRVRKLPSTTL

[7] = target: Adenosine receptor A1 (Homo sapiens) (UniProt P30542); test: A1/HU Eurofins-Panlabs selectivity data (BI); conditions: Compound concentration 10.0 uM
Adenosine receptor A1 (Homo sapiens), sequence (P30542 whole entry): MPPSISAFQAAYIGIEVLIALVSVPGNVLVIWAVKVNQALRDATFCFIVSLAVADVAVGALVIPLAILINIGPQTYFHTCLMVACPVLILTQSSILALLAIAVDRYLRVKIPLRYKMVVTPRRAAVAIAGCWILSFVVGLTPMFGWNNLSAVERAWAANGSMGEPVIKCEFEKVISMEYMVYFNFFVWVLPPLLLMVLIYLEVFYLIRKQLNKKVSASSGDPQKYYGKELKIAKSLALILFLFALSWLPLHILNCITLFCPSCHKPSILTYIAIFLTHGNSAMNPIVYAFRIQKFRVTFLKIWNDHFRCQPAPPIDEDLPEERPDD

[8] = target: Melatonin receptor type 1A (Homo sapiens) (UniProt P48039); test: MT1 (ML1A) Cerep selectivity data (BI); conditions: Compound concentration 20.0 uM
[9] = target: Prostaglandin G/H synthase 2 (Homo sapiens) (UniProt P35354); test: COX2_HU Cerep selectivity data (BI); conditions: Compound concentration 20.0 uM
Prostaglandin G/H synthase 2 (Homo sapiens), sequence (P35354 whole entry): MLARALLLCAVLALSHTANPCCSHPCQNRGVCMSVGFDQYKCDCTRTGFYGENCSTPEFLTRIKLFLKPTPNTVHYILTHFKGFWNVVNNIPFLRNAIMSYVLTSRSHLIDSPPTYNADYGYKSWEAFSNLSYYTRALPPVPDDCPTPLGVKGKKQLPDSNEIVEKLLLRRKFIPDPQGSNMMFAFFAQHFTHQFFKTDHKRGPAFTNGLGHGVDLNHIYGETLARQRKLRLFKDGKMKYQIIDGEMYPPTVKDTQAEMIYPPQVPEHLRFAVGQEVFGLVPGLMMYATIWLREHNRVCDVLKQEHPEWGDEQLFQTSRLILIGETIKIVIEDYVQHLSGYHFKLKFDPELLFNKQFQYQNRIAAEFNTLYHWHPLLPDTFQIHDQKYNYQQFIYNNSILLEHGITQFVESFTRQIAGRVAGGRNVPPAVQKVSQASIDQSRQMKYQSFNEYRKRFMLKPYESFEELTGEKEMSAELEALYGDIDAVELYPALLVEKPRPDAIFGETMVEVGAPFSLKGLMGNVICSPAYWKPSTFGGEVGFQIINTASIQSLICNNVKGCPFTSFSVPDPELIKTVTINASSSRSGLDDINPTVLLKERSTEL

[10] = target: Proto-oncogene tyrosine-protein kinase Src (Homo sapiens) (UniProt P12931); test: SRC Invitrogen selectivity data (BI); conditions: Compound concentration 3.0 uM
[11] = target: Serine/threonine-protein kinase pim-1 (Homo sapiens) (UniProt P11309); test: PIM1 Invitrogen selectivity data (BI); conditions: Compound concentration 3.0 uM
[12] = target: G protein-coupled receptor kinase 5 (Homo sapiens) (UniProt P34947); test: GRK5 Invitrogen selectivity data (BI); conditions: Compound concentration 3.0 uM
[13] = target: Activated CDC42 kinase 1 (Homo sapiens) (UniProt Q07912); test: TNK2 Invitrogen selectivity data (BI); conditions: Compound concentration 3.0 uM
Activated CDC42 kinase 1 (Homo sapiens), sequence (Q07912 whole entry, looked up): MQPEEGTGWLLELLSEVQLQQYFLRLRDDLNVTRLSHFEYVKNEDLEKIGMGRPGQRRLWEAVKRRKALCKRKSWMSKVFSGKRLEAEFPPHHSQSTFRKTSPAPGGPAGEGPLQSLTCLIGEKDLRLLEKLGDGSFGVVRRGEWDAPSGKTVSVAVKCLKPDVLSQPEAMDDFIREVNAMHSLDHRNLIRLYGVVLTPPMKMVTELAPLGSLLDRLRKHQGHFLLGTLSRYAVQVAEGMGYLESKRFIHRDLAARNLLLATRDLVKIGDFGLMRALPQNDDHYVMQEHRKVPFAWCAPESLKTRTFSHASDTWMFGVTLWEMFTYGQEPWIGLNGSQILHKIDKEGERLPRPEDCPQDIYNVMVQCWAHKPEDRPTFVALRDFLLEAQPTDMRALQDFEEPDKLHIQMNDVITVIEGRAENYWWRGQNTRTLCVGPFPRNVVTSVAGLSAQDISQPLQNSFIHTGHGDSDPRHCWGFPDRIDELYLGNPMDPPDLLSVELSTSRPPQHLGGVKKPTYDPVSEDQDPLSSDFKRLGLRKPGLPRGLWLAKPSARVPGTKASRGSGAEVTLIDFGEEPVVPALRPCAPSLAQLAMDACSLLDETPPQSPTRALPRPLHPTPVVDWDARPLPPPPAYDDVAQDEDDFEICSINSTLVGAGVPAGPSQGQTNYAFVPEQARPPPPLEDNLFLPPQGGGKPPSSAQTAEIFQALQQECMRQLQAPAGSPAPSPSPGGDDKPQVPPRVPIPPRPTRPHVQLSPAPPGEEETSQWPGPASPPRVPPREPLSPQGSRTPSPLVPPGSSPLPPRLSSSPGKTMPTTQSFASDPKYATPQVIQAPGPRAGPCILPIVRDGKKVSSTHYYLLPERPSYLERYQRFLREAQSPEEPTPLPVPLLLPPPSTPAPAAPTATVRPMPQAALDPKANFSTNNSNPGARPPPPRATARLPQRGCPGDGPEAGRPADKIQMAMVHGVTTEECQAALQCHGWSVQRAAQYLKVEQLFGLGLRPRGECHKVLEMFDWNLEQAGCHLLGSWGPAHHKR

[14] = target: T3, Tyrosine-protein kinase receptor TYRO3 (Homo sapiens) (UniProt Q06418); test: TYRO3 Invitrogen selectivity data (BI); conditions: Compound concentration 3.0 uM
T3 sequence (whole entry): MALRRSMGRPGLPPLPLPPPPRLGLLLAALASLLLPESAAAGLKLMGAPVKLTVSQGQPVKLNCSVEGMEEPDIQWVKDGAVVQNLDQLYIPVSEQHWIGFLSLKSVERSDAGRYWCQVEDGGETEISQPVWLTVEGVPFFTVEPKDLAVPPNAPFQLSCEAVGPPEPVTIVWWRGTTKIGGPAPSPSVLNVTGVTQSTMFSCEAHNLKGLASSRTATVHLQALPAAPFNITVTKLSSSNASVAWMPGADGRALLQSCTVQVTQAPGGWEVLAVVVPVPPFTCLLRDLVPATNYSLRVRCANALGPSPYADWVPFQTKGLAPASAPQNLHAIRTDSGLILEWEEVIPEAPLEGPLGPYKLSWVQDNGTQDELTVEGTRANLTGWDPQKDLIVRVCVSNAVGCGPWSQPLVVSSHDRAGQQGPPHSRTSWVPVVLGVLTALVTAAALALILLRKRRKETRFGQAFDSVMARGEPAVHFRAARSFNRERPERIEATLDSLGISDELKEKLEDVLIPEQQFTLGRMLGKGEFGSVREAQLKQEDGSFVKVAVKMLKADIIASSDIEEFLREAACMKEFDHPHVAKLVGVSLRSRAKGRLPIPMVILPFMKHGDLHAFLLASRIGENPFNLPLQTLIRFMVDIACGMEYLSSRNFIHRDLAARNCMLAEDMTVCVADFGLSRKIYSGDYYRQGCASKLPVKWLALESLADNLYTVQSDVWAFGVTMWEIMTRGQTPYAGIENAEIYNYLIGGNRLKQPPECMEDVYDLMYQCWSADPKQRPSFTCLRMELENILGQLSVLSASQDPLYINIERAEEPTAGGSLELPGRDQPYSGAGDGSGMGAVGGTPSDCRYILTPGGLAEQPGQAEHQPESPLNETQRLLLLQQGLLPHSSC

[15] = target: Nitric oxide synthase, inducible (Mus musculus) (UniProt P29477); test: INDUC_NOS Cerep selectivity data (BI); conditions: Compound concentration 20.0 uM
Nitric oxide synthase, inducible (Mus musculus), sequence (P29477 whole entry): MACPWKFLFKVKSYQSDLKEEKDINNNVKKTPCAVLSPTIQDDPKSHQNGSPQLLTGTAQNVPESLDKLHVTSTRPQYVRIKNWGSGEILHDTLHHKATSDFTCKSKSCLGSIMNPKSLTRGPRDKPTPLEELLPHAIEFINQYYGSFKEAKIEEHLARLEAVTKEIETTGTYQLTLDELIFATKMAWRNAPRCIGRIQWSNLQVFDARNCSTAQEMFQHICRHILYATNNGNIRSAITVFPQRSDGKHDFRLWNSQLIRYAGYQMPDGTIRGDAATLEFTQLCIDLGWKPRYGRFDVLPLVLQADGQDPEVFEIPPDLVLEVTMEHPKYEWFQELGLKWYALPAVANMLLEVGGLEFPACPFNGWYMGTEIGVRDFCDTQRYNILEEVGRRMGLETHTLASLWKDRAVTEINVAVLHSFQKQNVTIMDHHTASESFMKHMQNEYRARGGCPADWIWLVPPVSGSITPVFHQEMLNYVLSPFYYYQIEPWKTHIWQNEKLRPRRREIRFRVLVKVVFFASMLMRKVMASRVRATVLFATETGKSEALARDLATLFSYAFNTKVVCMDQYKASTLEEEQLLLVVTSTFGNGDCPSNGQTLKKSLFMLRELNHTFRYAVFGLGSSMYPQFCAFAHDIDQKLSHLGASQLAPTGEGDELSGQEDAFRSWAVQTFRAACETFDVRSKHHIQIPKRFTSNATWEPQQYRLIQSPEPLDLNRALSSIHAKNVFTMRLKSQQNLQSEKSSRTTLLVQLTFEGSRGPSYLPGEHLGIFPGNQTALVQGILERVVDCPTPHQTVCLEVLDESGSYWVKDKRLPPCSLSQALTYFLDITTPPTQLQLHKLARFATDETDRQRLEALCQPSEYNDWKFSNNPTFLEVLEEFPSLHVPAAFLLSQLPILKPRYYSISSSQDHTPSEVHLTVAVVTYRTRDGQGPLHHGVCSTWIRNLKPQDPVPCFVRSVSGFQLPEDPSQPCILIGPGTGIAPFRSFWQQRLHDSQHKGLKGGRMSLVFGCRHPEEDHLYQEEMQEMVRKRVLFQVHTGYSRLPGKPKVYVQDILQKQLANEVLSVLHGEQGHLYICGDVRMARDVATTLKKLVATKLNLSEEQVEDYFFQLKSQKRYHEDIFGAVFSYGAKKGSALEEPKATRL

[16] = target: T4, Calcium/calmodulin-dependent protein kinase type IV (Homo sapiens) (UniProt Q16566); test: CAMK4 Invitrogen selectivity data (BI); conditions: Compound concentration 3.0 uM
T4 sequence (whole entry): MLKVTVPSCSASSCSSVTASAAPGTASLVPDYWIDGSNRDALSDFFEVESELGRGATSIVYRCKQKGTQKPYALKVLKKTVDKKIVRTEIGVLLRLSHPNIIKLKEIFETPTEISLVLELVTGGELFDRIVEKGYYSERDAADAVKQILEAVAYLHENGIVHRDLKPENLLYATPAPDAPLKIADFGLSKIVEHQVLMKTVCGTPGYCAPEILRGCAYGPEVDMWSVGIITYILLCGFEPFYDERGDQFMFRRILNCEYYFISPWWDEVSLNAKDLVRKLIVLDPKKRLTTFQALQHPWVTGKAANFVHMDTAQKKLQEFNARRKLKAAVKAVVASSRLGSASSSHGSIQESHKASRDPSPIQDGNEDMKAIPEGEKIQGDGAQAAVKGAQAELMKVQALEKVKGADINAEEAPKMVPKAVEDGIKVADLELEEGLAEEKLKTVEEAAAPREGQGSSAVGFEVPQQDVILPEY

[17] = target: Histamine H1 receptor (Homo sapiens) (UniProt P35367); test: H1/PYRIL/HS Cerep selectivity data (BI); conditions: Compound concentration 20.0 uM
[18] = target: Angiopoietin-1 receptor (Homo sapiens) (UniProt Q02763); test: TEK Invitrogen selectivity data (BI); conditions: Compound concentration 3.0 uM
[19] = target: PAS domain-containing serine/threonine-protein kinase (Homo sapiens) (UniProt Q96RG2); test: PASK Invitrogen selectivity data (BI); conditions: Compound concentration 3.0 uM

Measured: residual activity

Casein kinase I isoform gamma-2 (Homo sapiens), sequence (P78368 whole entry, looked up, canonical isoform): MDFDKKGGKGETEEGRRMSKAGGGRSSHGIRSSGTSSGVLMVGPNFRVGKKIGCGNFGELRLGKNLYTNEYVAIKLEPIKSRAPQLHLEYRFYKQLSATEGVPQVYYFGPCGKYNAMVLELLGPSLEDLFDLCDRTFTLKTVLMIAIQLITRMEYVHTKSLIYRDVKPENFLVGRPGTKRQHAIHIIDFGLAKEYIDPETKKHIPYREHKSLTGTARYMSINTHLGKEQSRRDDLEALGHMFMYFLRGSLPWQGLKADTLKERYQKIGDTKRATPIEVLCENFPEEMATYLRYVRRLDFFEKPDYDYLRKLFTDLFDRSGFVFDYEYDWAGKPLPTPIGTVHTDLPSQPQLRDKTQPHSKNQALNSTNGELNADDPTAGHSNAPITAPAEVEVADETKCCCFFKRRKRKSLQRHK

CN(C)C(=O)Cn1cc(-c2nc([C@@](C)(c3ccc(-c4cnc(N)nc4)cc3)C3CC3)no2)cn1 [BI 665915]
inactive: [1] 98.5% | [2] 101% | [3] 103% | [4] 96% | [5] 95% | [6] 96% | [7] 75% | [8] 91% | [9] 64% | [10] 90.5% | [11] 97.5% | [12] 100% | [13] 99% | [14] 96.5% | [15] 79% | [16] 86% | [17] 89% | [18] 97% | [19] 100%
